Data published in patent US7982030B2, “Synthesis of selenium-derivatized nucleosides, nucleotides, phosphoramidites, triphosphates and nucleic acids” (Georgia State University Research Foundation, Inc., priority 2001, dated 2011).

Biological target: T1, DNA polymerase (Klenow Fragment) (Escherichia coli, UniProt P00582)
T1 construct: using a DNA polymerase (Klenow Fragment)
Assay: terminal extension on a DNA template: substrate recognition by Klenow
Format: biochemical
Conditions: 3′-terminal extension on a DNA template
Protocol: An alternative approach to label RNAs with selenium is based on the RNA 3′-labeling method (FIG. 9). See ref. 33. After a long RNA is prepared by transcription using ordinary NTPs, α-Se-dNTPs is transferred to its 3′-terminus on a DNA template using a DNA polymerase (Klenow Fragment). […] Experiments also reveal that the number of incorporated dNTPs is dependent on the length of the overhanging nucleotides of the template, and the terminal extension reaction giving full-length product with high yields in the presence of high dNTP concentration. The products may be purified by any one of a variety of methods well known in the art, such as for example, preparative anion exchange HPLC, to single nucleotide resolution for RNA as long as 70 nucleotides. (Ref 34). This terminal transfer approach can be very useful for medium size RNAs (up to 80 nucleotides). An analogous approach can be used to prepare Se-DNAs.

T1 sequence (P00582 324-928): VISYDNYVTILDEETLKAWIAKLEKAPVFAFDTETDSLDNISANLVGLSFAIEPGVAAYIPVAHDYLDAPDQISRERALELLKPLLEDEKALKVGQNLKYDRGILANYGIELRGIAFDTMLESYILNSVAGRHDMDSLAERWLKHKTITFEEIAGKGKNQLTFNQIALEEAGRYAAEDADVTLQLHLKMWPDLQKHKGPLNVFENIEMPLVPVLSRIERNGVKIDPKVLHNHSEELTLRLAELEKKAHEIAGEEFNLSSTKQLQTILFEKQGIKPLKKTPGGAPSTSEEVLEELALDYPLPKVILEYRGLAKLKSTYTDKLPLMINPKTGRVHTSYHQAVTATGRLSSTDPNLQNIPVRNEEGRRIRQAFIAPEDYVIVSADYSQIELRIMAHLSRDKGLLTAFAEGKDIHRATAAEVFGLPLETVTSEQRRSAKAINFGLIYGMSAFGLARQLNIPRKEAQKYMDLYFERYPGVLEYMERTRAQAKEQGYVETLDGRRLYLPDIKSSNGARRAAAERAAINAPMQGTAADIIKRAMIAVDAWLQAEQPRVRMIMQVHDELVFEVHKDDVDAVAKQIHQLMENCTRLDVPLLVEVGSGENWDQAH

Cc1cn(C2CC(O)C(COP(O)(=[Se])OP(=O)(O)OP(=O)(O)O)O2)c(=O)[nH]c1=O (stereo not drawn) [α-Se-TTP 24]
recognition as a substrate by Klenow: recognized α-Se-TTP 24 as a substrate
